The text below walks through data of patent US12570614B2, “Phenyl amino pyrimidine compounds and uses thereof” (GlaxoSmithKline LLC, priority 2007, dated 2026).

pIC50: −log10 of the molar value. Like-named read-outs stand apart in the source and are kept apart here.

The test system of assay [1] is BaF3 TELJAK cells (BafT_J2). Briefly: Cellular screening, BaF3 TELJAK2 cells (Alamar Blue). The format is cell-based. The conditions noted are these: Mus musculus. How it is done:
(§1) For screening purposes, compounds were diluted in 96 well plates at a concentration of 20 μM. Plates were warmed at 37° C. for 30 minutes before the assay was performed.
A TEL/Jak2 fusion was generated by digestion of the TELPCR product with BamH I/Sal I restriction enzymes, digestion of the JAK2 PCR product with Sal I/Not I restriction enzymes, followed by ligation and subcloning of the ligation product into the mammalian expression Vector pTRE 2 (Clontech), which was prepared by digestion with BamH I—Not I restriction enzymes, to give the TEL/Jak2 fusion plasmid pTELJAK2.
(§2) The growth factor dependent myelomonocytic cell line BaF3 bearing the pTET-off plasmid (Clontech) was transfected with either pTELJAK2 or pTELJAK3, and the transfected cells were selected for growth-factor independent cell growth. The BaF3 wild-type cells were cultured in DMEM containing 10% FCS, 10% WEHI 3B conditioned medium. The BaF3 TELJAK cells ([…]) were cultured in DMEM 10% Tet-System Approved FBS (without WEHI 3B conditioned medium).
(§3) Cell suspensions were prepared by harvesting cells from culture (the cells used in this test were in late log phase growth with high viability.) Cells were diluted in the appropriate growth medium, as described above, to 1.1× final concentration (from 50,000 cell/mL to 200,000 cell/mL, depending on cell line).
Compounds to be tested were added (10 μL, 10× final concentration) to a flat bottomed 96-well plate. The cellular suspension (90 μL per well) was then added, and the plate incubated for 48-72 hr at 37° C., 5% CO2. Alamar Blue 10 μL per well was added and the plates returned to the incubator for a further 4-6 hours.
(§4) Result are given in table 2 where +++ is <1 μM, ++ is <5 μM and + is <20 μM

Assay [2] concerns CTLL2. Briefly: Cellular screening, CTLL2 cells (Alamar Blue). The conditions noted are these: Mus musculus, CTLL-2; 48-72 hr incubation; read-out: CTLL2_IC50_μM. The format is cell-based. Here is the method:
as §1, §3
(§5) Compounds to be tested were added (10 μL, 10× final concentration) to a flat bottomed 96-well plate. The cellular suspension (90 μL per well) was then added, and the plate incubated for 48-72 hr at 37° C., 5% CO2. Alamar Blue 10 μL per well was added and the plates returned to the incubator for a further 4-6 hours. The plates were then read at 544 nm.
as §4
On the technique in general: Alamar Blue is a resazurin reagent that responds to reducing activity.

Assay [3] concerns the target human JAK2 (Homo sapiens (Human), UniProt O60674). Briefly: JAK2 kinase domain Alphascreen enzyme screening. The conditions noted are these: read-out: JAK2_IC50_nM. The format is biochemical. How it is done:
(§6) For screening purposes, compounds (in 100% DMSO) were warmed at 37° C. for at least 20 minutes before use. A […] stock was initially made in assay buffer, where the final concentration of DMSO was 0.3%. The stocks were then diluted in 384 well Optiplates (Packard) where the final concentration of the compound was 5 μM.
The kinase domain of human JAK2 was amplified from U937 mRNA using the polymerase chain reaction with the following primers: […]
The JAK2 PCR products were cloned into the pDest20 destination vector (Gibco). The JAK2 plasmid was then transformed into competent DH10Bac cells (Gibco), and the recombinant baculovirus was prepared via Sf9 insect cell transfection.
(§7) Baculovirus preparations from each of the JAK family members were infected into one litre of […] (Spodoptera frugiperda) cells (Invitrogen) grown in SF900II serum free medium (Invitrogen) to a cell density of approximately 2×10^6 cells/ml. Cells were infected with virus at a cell culture to virus stock ratio of 20:1. Cells were harvested and lysed 48 hours post infection. The GST-tagged JAK kinase domains were purified by affinity chromatography on a GSH agarose column (Scientifix).
Alphascreen phosphotyrosine acceptor beads followed by streptavidin donor beads at a concentration of 1/100 in stop buffer were added to each well under subdued light and incubated for 2-3 hours. The Alphascreen plates were read on a Packard Fusion Alpha instrument

Assay [4] addresses human JAK3 (Homo sapiens (Human), UniProt P52333). Briefly: JAK3 kinase domain Alphascreen enzyme screening. Type of assay: biochemical. The conditions noted are these: read-out: JAK3_ IC50_nM. How it is done: as §6
The kinase domain of human JAK3 was amplified from U937 mRNA using the polymerase chain reaction with the following primers: […]
The JAK3 PCR products were cloned into the pDest20 destination expression vector (Gibco). The JAK3 plasmid was then transformed into competent DH10Bac cells (Gibco), and the recombinant baculovirus was prepared via Sf9 insect cell transfection.
as §7
The compounds were then incubated with substrate in the presence of either […] ATP for 60 or 90 minutes. […] (final concentration 111 μM) or substrate-2 substrate with the sequence biotin-[…] [SEQ ID NO: 16] (final concentration 133 μM). Alphascreen phosphotyrosine acceptor beads followed by streptavidin donor beads at a concentration of 1/100 in stop buffer were added to each well under subdued light and incubated for 2-3 hours. The Alphascreen plates were read on a Packard Fusion Alpha instrument

Assay [5] concerns BaF3 wild-type cells. Briefly: Cellular screening, BaF3 wild-type cells (Alamar Blue). The format is cell-based. The conditions noted are these: Mus musculus, 48-72 hr incubation, read-out: BAF3wt_IC50_μM. How it is done:
as §1, §2, §3, §5, §4

Assay [6] concerns Ba/F3 TelJAK2 cells. Briefly: Subcutaneous tumour model of Ba/F3 TelJAK2 cells in nude mice. The conditions noted are these: 5 mg/kg i.v. 3× weekly, after 14 days of dosing, t-test p<0.05. The format is in vivo, mouse. How it is done:
Dosing commenced 11 days post-tumour cell inoculation, when tumours were palpable (mean tumour volume of 6 mm^3). Tumour dimensions were measured twice weekly.

Where [7] appears, read: BaF3, 48-72 hr incubation, read-out: BafT_J2_IC50_μM.

Chain of human JAK2 (O60674 849-1124): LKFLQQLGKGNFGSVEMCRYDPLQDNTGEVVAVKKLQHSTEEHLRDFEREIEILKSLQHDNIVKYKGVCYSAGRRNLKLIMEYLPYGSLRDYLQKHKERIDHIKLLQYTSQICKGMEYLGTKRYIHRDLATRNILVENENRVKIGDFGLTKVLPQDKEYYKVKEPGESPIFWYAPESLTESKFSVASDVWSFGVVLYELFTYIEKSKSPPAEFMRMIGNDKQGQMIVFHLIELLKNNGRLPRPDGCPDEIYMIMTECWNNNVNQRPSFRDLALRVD
Chain of human JAK3 (P52333 822-1111): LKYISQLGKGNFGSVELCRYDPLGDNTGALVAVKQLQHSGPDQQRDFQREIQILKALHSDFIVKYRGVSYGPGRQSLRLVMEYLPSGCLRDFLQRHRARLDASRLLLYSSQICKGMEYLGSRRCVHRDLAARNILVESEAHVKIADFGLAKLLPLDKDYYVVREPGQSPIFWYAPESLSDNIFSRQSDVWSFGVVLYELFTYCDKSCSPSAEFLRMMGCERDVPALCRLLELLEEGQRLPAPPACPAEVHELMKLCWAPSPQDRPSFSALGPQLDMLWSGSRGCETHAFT

With `CCN1CCC(Oc2ccc(Nc3nccc(-c4ccc(C(=O)NCC#N)cc4)n3)cc2)CC1` [Compound 80, N-(cyanomethyl)-4-(2-(4-(1-ethylpiperidin-4-yloxy)phenylamino)pyrimidin-4-yl)benzamide], the pIC50 was over 6.00 in assay [1] (setting [7]); over 5.30 in assay [2]; over 7.00 in assay [3]; over 6.30 in assay [4]; over 5.30 in assay [5].
Consider `CS(=O)(=O)N(CC#N)c1ccc(-c2ccnc(Nc3ccc(N4CCOCC4)c(F)c3)n2)cc1` [Compound 81, N-(cyanomethyl)-N-(4-(2-(3-fluoro-4-morpholinophenyl-amino)pyrimidin-4-yl)phenyl)methane-sulfonamide], for which the pIC50 was over 6.00 in assay [1] (setting [7]); over 5.30 in assay [2]; over 7.00 in assay [3]; under 6.00 in assay [4]; over 5.30 in assay [5].
Take `CS(=O)(=O)N(CC#N)c1ccc(-c2ccnc(Nc3ccc(N4CCOCC4)c(C#N)c3)n2)cc1` [Compound 82, N-(4-(2-(3-cyano-4-morpholinophenyl-amino)pyrimidin-4-yl)phenyl)-N-(cyanomethyl) methanesulfonamide]: the pIC50 in assay [1] (setting [7]) was over 6.00; in assay [2], over 5.30; in assay [3], over 7.00; in assay [4], under 6.00; in assay [5] it was over 5.30.
On to `N#CCNC(=O)c1ccc(-c2ccnc(Nc3ccc(N4CCS(=O)(=O)CC4)cc3)n2)cc1` [Compound 89, N-(cyanomethyl)-4-(2-{[4-(1,1-dioxo-1λ^6,4-thiomorpholin-4-yl)phenyl]amino}pyrimidin-4-yl)benzamide], for which the pIC50 in assay [1] (setting [7]) was over 5.30; in assay [2], over 5.30; in assay [3], over 7.00; in assay [4], over 6.30; in assay [5], over 5.30.
Turning to `N#CCNC(=O)c1ccc(-c2nc(Nc3ccc(N4CCOCC4)cc3)ncc2F)cc1` [Compound 93, N-(cyanomethyl)-4-(5-fluoro-2-(4-morpholinophenyl-amino)pyrimidin-4-yl)benzamide], the pIC50 in assay [1] (BaF3, read-out: BafT_J2_IC50_μM) is over 6.00; in assay [2], over 6.00; in assay [3], over 7.00; in assay [4], over 6.30; in assay [5], over 6.00.
As for `CC(=O)O[C@H]1C(=O)[C@@]2(C)[C@H]([C@H](OC(=O)c3ccccc3)[C@]3(O)C[C@H](OC(=O)[C@H](O)[C@@H](NC(=O)c4ccccc4)c4ccccc4)C(C)=C1C3(C)C)[C@]1(OC(C)=O)CO[C@@H]1C[C@@H]2O` [Taxol, reference compound], in assay [6], the “tumour volumes compared to Vehicle Control Treated Group” value is listed as “smaller tumour volumes”.
